Data reported in patent US20090076092A1, “METHOD FOR DISRUPTING REPRODUCTIVE PERFORMANCE OF ARTHROPODS” (priority 2006, published 2009).

Experiments:
[1] = tested on: Colorado potato beetle, (Leptinotarsa decemlineata Say); test: Test E: sub-lethal treatments on adult Colorado potato beetles; type: in vivo; conditions: for Total number of eggs: eggs collected daily for 20 days; for Mean number of viable larvae: larvae that developed to the pupal stage
Protocol: For evaluating the reproductive performance effects on Colorado potato beetle, (Leptinotarsa decemlineata Say), a colony of potato beetles was cultured in the laboratory on potato plants. The pupae were provided soil material to facilitate pupation. On emergence from the soil, the adult beetles were separated into different cages to avoid initial contact between the male and female beetles. Immediately afterwards, the sex of each adult beetle was determined, and each individual insect was placed in a Petri dish and fed with pieces of excised potato leaves, before being placed in a whole plant-containing test unit for treatment with a test compound solution. Each treatment consisted of twenty adult beetles of the same age (10 males and 10 females), and a pair consisting of a male and female was considered to be a replicate; thus there were 10 replicates per treatment.
Test solutions were prepared by diluting the test compound with acetone to provide the selected sub-lethal concentrations. Treatments included Compound 1 at 6.25 and 25 ppm as well as a control without test compound.
A 15 day-old potato plant with 2 to 3 leaves in a round peat pot was infested with 10 pairs of adult beetles, and the test solution was applied at a spray pressure of 310 kPa using a moving boom tunnel sprayer equipped with one Teejet nozzle, model 8003-EVS and calibrated at speed of 1 m/s and 345 kPa to deliver about 280 L/ha. A piece of filter paper was wrapped around the plant and covered the soil, and the spray nozzle was placed 40 cm above the top of potted plant unit so that the upper surface of the leaves was the only part of the plant contacted with the spray mixture.
After 24 h, one treated male and one treated female were transferred onto a covered container containing a potato plant to allow mating to occur. The test units were held in a growth chamber provided with 16 hours of light per day, 70% relative humidity and 20° C. Daily observations were made to record oviposition data. The eggs deposited by the females were collected daily and counted for 20 days. The collected eggs were then placed in a Petri dish lined with moistened paper filter to prevent dehydration, and maintained in an incubator at 20-24° C. with 16 hours of light per day, 70% relative humidity. The number of hatched eggs and the number of viable larvae that developed to the pupal stage were also recorded. The study was discontinued after the remaining unhatched eggs succumbed to fungal infections and high humidity.

diamondback moth = test: Previous laboratory studies of diamondback moth mortality; type: in vivo; conditions: Plutella xylostella, read-out: mortality of the diamondback moth (LC20)
Source text: (§1) The sub-lethal concentrations or doses used in the various tests for the specific pest species and populations tested in the context of the present invention were estimated from multiple-rate, dose-finding tests to determine the control rates and activity break rates. […] Therefore, depending on the target pest species, either the LC50 or a suitable concentration between LC50 and LC20 was selected as the sub-lethal dose. The specific procedures used to select the respective doses are described in each Test.
(§2) In addition, a control without test compound was included.

cotton bollworm = test: Preliminary dose-response curve on cotton bollworm; type: in vivo, Helicoverpa armigera; conditions: cotton bollworm adults; preliminary dose-response curve at 10, 25, 50, 80 and 100 ppm
Source text: as §1
Sub-lethal rates of Compound 1 on cotton bollworm were estimated based on a preliminary dose-response curve using rates of 10, 25, 50, 80 and 100 ppm. […] Three treatments consisted of test solutions containing Compound 1 at 10, 20 and 30 ppm as well as a control sprayed with water without test compound.

[2] = tested on: green peach aphid (Myzus persicae Sulzer); test: Test B: nymph production by green peach aphid after 24 hours exposure on treated radish plants; type: in vivo; conditions: for Living (%) / On plant (%): 1 DAT; for Living (%): all aphids alive 24 h after treatment; for On plant (%): all aphids on the treated plant; for No. of nymphs (mean ± SE): per adult
Protocol: For evaluating reproductive performance effects on green peach aphid (Myzus persicae Sulzer), each test unit consisted of a radish plant grown in a 6 cm×6 cm square pot infested with a mixed population (nymphs and adults) of green peach aphids from a laboratory-reared culture. Each plant was infested with about 100 aphids. Test solutions were prepared and sprayed on the test plants (2 plants per treatment) as described for TEST A. Treatments included Compound 1 at 100 and 500 ppm, Compound 2 at 4 and 6 ppm, and a control without test compound.
Aphids were kept on the treated plants for 24 hours, and then only adult aphids staying on the treated plant were transferred to untreated radish plants grown singly in a 6 cm×6 cm square pots. One test unit or one replicate consisted of a single adult aphid on a radish plant in a pot. The number of nymphs in each replicate was counted 4 and 6 days after treatment. At the higher concentration of each test compound a total of 45 replicates were used, and at the lower concentration of each test compound a total of 30 replicates were used. In addition, prior to transferring aphids singly to the untreated radish plants one day after treatment (1 DAT), the total number of aphids living and those remaining on the treated plant were counted.
The results are listed in Table B. Square-root transformation was done on the number of nymphs produced per adult (female) aphid, and the data were analyzed using analysis of variance (ANOVA) and Fisher's Least Significant Difference (LSD) tests for separation of means.

[3] = tested on: diamondback moth (Plutella xylostella); test: Test G: number of eggs (fecundity) of adult diamondback moth; type: in vivo; conditions: 10 ppm, control itself gave very few eggs
Source text: For evaluating the reproductive performance effects on diamondback moth (Plutella xylostella), a minimum of 120 larvae of diamondback moth of each sex were used. Male and female individuals of late instar larvae were separated and caged in individual containers containing Chinese kale. Male diamondback moths were identified by a white dot on the abdomen at the late instar larval stage. When pupae emerged, each pupa was caged separately until it emerged as adult.
as §2
Groups of 40 newly emerged (<24 hours) moths of the same sex were placed inside a meshed cage. The caged adult moths were then sprayed with the test solution, using a CO2 backpack sprayer at 500 L/Ha. For the control treatment, the adults were sprayed with water at a similar spray volume. The groups of treated individuals were then transferred into a clean container with a source of adult diet (i.e. a cotton wick soaked in 10% sucrose solution). Separate containers were used for different groups of treated insects. One day after treatment, the numbers of live, moribund and dead adults were counted. One live treated male and one live treated female were placed together in a copulation cage, which was a 300 mL clear plastic cup covered with nylon screen supplied with an adult diet source of 10% sucrose solution.
Each pair of virgin adults was a replicate, and each treatment consisted of 10 to 20 replicates. Every day each pair of moths was moved to a new cup supplied with a diet of 10% sucrose solution.
The number of eggs laid per female moth was counted daily during the two days when the female moths actively produced viable eggs. The results, listed in Table G, indicate that no meaningful comparative information can be inferred, as the even the Control provided very few eggs per female moth; this indicates a systemic reproduction problem from unknown causes. However, had the Control worked, we expect to see the reproductive performance effects on diamondback moth.

## CNC(=O)c1cc(Cl)cc(C)c1NC(=O)c1cc(Br)nn1-c1ncccc1Cl [Compound 1, 3-bromo-N-[4-chloro-2-methyl-6-[(methylamino)carbonyl]phenyl]-1-(3-chloro-2-pyridinyl)-1H-pyrazole-5-carboxamide]
[1]; 6.25 and 25 ppm
  fecundity and fertility data versus control: not significantly different from the control
[1]; 6.25 ppm
  Mean number of hatched eggs: 188
  Total number of eggs: 271
  Mean number of viable larvae: 95
[1]; 25 ppm
  Mean number of hatched eggs: 219
  Total number of eggs: 287
  Mean number of viable larvae: 117
Diamondback moth
  mortality at 10 ppm: ~20%
Cotton bollworm
  LC20: 18 ppm
  LC50: 33 ppm
[2]; 100 ppm
  Living (%): 99.9%
  On plant (%): 99.6%
[2]; 100 ppm, 4 DAT
  No. of nymphs (mean ± SE): 3.5 ± 0.3 b
[2]; 100 ppm, 6 DAT
  No. of nymphs (mean ± SE): 7.3 ± 0.4 a
[2]; 500 ppm
  Living (%): 99.6%
  On plant (%): 99.9%
[2]; 500 ppm, 4 DAT
  No. of nymphs (mean ± SE): 4.6 ± 0.3 a
[2]; 500 ppm, 6 DAT
  No. of nymphs (mean ± SE): 8.1 ± 0.5 a
[3]; 1 DAT
  No. of eggs per female moth: 0
[3]; 2 DAT
  No. of eggs per female moth: 2.2
